In PubChem BioAssay (NCI):
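These data come from cells grown in 96-well plates and exposed to compound for 48 hours at five concentrations. GI50: concentration for 50% inhibition of growth. TGI is the concentration that stops growth completely.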

Tests used:
Assay in all cases: DTP human tumour cell line panel, 48 h
HCC-2998 colon = tested on: HCC-2998 colon
HOP-62 NSCLC = tested on: HOP-62 NSCLC
HOP-92 NSCLC = tested on: HOP-92 NSCLC
HT29 colon = tested on: HT29 colon
OVCAR-8 ovarian = tested on: OVCAR-8 ovarian
PC-3 prostate = tested on: PC-3 prostate
RPMI-8226 leukemia = tested on: RPMI-8226 leukemia
RXF 393 renal = tested on: RXF 393 renal
SW-620 colon = tested on: SW-620 colon
UACC-62 melanoma = tested on: UACC-62 melanoma

| SMILES | GI50 (HCC-2998 colon) [µM] | TGI (HCC-2998 colon) [µM] | GI50 (HOP-62 NSCLC) [µM] | TGI (HOP-62 NSCLC) [µM] | GI50 (HOP-92 NSCLC) [µM] | TGI (HOP-92 NSCLC) [µM] | GI50 (HT29 colon) [µM] | TGI (HT29 colon) [µM] | GI50 (OVCAR-8 ovarian) [µM] | TGI (OVCAR-8 ovarian) [µM] | GI50 (PC-3 prostate) [µM] | TGI (PC-3 prostate) [µM] | GI50 (RPMI-8226 leukemia) [µM] | TGI (RPMI-8226 leukemia) [µM] | GI50 (RXF 393 renal) [µM] | TGI (RXF 393 renal) [µM] | GI50 (SW-620 colon) [µM] | TGI (SW-620 colon) [µM] | GI50 (UACC-62 melanoma) [µM] | TGI (UACC-62 melanoma) [µM] |
| --- | --- | --- | --- | --- | --- | --- | --- | --- | --- | --- | --- | --- | --- | --- | --- | --- | --- | --- | --- | --- |
| CCN(CC)C(=O)CCCCCn1c2ccccc2c2c3c(c4c5ccccc5[nH]c4c21)C(=O)N(O)C3=O | 4.72 | 27.1 | 11.6 | 47.8 | 2.73 | 7.68 | 2.22 | 4.44 | 4.1 | 28.3 | 3.19 | 52.9 | 3.06 | 11.3 | 4.01 | > 100 | 4.29 | > 100 | 4.1 | 20.1 |
| CCC1=C(c2ccc(OC)cc2)CC[C@]2(CCNC2=O)[C@@H]1C | – | > 65.3 | – | > 100 | – | > 100 | – | 59.6 | – | > 100 | – | > 77 | – | 45.7 | – | > 100 | – | > 100 | – | 67.1 |
| CN1CC[C@]23c4c5ccc(O)c4OC2c2[nH]ncc2C[C@H]3[C@H]1C5 (stereo not given in full) | – | > 100 | – | > 100 | – | > 100 | – | > 100 | – | > 100 | – | > 100 | – | > 100 | – | > 100 | – | – | – | > 100 |
| CCOC(=O)n1c2ccccc2c(=O)n1CCO | – | > 100 | – | > 100 | – | – | – | > 100 | – | > 100 | – | > 100 | – | – | – | > 100 | – | > 100 | – | > 100 |
| O=C(Nc1cccc(-n2cc(-c3ccncc3)c(-c3ccc(O)c(Cl)c3)n2)c1)Nc1ccc(Cl)c(Cl)c1 | 3.65 | > 100 | – | – | 0.763 | 3.38 | 3.42 | 39 | 1.65 | 5.61 | 2.07 | 7.45 | 1.49 | 4.54 | – | – | 2.63 | 7.32 | 1.99 | 4.94 |
| CC(=O)OC1COC(Oc2c(C)c3c4c(c2O)[C@@H](C)CC[C@@H]4[C@@H](C)C[C@H]3C=C(C)C)C(O)C1O (stereo not given in full) | 15.1 | 31.3 | 17.8 | 34.2 | 18.7 | 36.3 | – | – | 20.6 | 50.3 | 14.4 | 31.1 | 16.6 | 39.5 | 19.8 | 42.3 | – | – | 18.8 | 39.4 |
| COC(=O)c1ccc2c(c1)C(=O)c1c-2n(CCCCl)c(=O)c2cc(OC)c(OC)cc12 | > 100 | > 100 | > 100 | > 100 | – | – | > 100 | > 100 | > 100 | > 100 | > 100 | > 100 | 75.2 | > 100 | – | – | > 100 | > 100 | > 100 | > 100 |
| CN(c1ccc(NC(=O)NCCN2CCOCC2)cc1)c1ccnc(Nc2ccc(CS(C)(=O)=O)cc2)n1 | > 25 | > 25 | > 25 | > 25 | 19.2 | > 25 | > 25 | > 25 | > 25 | > 25 | > 25 | > 25 | > 25 | > 25 | > 25 | > 25 | > 25 | > 25 | > 25 | > 25 |
